How the values were obtained:
[1] = molecular target: Poly [ADP-ribose] polymerase 1 (Homo sapiens, UniProt P09874); assay: Displacement of [125I]KX1 from PARP1 in human OVCAR-8 cells incubated for 1 hr by wizard gamma counter analysis
[2] = molecular target: Prostaglandin G/H synthase 2 (Homo sapiens) (UniProt P35354); assay: Inhibition of COX-2 (unknown origin)
[3] = molecular target: Prostaglandin G/H synthase 1 (Homo sapiens) (UniProt P23219); assay: Inhibition of COX-1 (unknown origin)

Sequence of Poly [ADP-ribose] polymerase 1 (P09874 whole entry): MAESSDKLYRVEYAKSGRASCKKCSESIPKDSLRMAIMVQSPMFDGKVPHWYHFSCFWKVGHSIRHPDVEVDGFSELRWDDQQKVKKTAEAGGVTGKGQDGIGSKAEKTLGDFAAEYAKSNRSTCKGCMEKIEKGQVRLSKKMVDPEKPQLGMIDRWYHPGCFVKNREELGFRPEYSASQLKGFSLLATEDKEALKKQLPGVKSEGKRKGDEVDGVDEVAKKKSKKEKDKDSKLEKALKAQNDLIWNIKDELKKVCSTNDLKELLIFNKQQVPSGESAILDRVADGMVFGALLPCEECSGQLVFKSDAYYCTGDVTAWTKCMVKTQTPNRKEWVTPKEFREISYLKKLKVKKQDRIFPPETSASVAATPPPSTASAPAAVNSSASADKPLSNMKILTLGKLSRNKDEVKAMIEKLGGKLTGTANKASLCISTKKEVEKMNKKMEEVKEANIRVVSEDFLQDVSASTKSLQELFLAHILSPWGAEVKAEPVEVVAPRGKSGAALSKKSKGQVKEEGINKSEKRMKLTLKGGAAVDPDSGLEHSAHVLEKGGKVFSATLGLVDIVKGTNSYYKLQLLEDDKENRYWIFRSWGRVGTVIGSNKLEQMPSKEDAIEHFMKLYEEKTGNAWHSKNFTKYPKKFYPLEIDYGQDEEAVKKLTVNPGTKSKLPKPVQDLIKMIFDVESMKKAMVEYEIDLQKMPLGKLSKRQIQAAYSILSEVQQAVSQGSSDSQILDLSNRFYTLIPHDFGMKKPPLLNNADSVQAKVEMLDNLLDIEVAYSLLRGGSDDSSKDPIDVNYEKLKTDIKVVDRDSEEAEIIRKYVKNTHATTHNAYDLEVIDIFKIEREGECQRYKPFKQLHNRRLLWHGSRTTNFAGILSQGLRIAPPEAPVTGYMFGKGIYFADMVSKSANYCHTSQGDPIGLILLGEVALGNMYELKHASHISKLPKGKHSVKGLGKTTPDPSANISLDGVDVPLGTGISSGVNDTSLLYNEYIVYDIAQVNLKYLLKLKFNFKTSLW
Sequence of Prostaglandin G/H synthase 2 (Homo sapiens) (P35354 whole entry, looked up): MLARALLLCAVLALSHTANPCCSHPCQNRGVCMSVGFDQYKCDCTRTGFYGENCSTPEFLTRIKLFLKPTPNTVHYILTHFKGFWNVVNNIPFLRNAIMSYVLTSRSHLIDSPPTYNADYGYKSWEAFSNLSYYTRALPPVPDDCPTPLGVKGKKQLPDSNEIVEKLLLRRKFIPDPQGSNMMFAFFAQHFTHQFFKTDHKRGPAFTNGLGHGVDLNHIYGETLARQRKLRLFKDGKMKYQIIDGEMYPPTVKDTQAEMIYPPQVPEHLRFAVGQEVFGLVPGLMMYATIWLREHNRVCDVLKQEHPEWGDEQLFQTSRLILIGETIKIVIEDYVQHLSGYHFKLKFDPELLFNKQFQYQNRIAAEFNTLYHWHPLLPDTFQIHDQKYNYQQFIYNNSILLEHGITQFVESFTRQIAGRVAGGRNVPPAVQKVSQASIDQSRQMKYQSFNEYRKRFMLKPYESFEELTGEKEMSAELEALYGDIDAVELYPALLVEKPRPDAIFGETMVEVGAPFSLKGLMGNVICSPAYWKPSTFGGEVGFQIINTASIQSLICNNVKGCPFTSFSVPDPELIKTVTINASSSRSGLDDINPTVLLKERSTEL

SMILES	IC50 [1]	IC50 [2]	IC50 [3]
COC1CC(NC(=O)c2cc(Cc3n[nH]c(=O)c4ccccc34)ccc2F)C1 (stereo not drawn)	44 nM		
COc1ccc(-c2nc(N3N=C(c4ccc(F)cc4)CCC3=O)n(C)c(=O)c2C#N)cc1		1400 nM	115000 nM
